Experimental findings from ChEMBL document CHEMBL1833962, “Benzotriazinone and benzopyrimidinone derivatives as potent positive allosteric AMPA receptor modulators” (2011) are described below.

Activity calls are given as the source filed them. No cut-off for these calls is given here.

Assay [1] is filed under the species Rattus norvegicus. Kind of assay: Positive allosteric modulation of AMPA receptor in Sprague-Dawley rat hippocampal neuron assessed as glutamate-induced response pre-treated for 20 secs by patch-clamp electrophysiology. Format: tissue-based. As to conditions: Hippocampus.
Assay [2] deals with Rattus norvegicus. Kind of assay: Positive allosteric modulation of AMPA receptor in anesthetized Long-Evans rat assessed as amplitude increase by measuring evoked hilar excitatory post-synaptic field potentials at 5 mg/kg, ip for every 20 secs up to 80 to 100 mins by electrophysiology assay. Format: functional.
In assay [3] the test system is Rattus norvegicus. Put plainly: Positive allosteric modulation of AMPA receptor in anesthetized Long-Evans rat assessed as amplitude increase by measuring evoked hilar excitatory post-synaptic field potentials at 0.5 mg/kg, iv for every 20 secs up to 80 to 100 mins by electrophysiology assay. Format: functional.
Assay [4] relates to Rattus norvegicus. Put plainly: Positive allosteric modulation of AMPA receptor in anesthetized Long-Evans rat assessed as amplitude increase by measuring evoked hilar excitatory post-synaptic field potentials at 3 mg/kg, ip for every 20 secs up to 80 to 100 mins by electrophysiology assay. The format is functional. As to conditions: route intraperitoneal.
In assay [5] the test system is Rattus norvegicus. Kind of assay: Positive allosteric modulation of AMPA receptor in anesthetized Long-Evans rat assessed as amplitude increase by measuring evoked hilar excitatory post-synaptic field potentials at 1 mg/kg, iv for every 20 secs up to 80 to 100 mins by electrophysiology assay. The format is functional.
Assay [6] relates to Rattus norvegicus. Kind of assay: Positive allosteric modulation of AMPA receptor in anesthetized Long-Evans rat assessed as amplitude increase by measuring evoked hilar excitatory post-synaptic field potentials at 1 mg/kg, ip for every 20 secs up to 80 to 100 mins by electrophysiology assay. The format is functional. As to conditions: route intraperitoneal.
Assay [7] concerns Rattus norvegicus. Kind of assay: Positive allosteric modulation of AMPA receptor in anesthetized Long-Evans rat assessed as amplitude increase by measuring evoked hilar excitatory post-synaptic field potentials at 10 mg/kg, ip for every 20 secs up to 80 to 100 mins by electrophysiology assay. Format: functional. As to conditions: route intraperitoneal.
Assay [8] has as its system Rattus norvegicus. Kind of assay: Positive allosteric modulation of AMPA receptor in anesthetized Long-Evans rat assessed as amplitude increase by measuring evoked hilar excitatory post-synaptic field potentials at 2 mg/kg, ip for every 20 secs up to 80 to 100 mins. The format is functional. The settings on record: route intraperitoneal.
The subject of assay [9] is Rattus norvegicus. Kind of assay: Memory enhancing effect in Long-Evans rat assessed as increase in tetanic stimulation of hippocampal long term potentiation at 1 mg/kg, ip. The format is functional, organism-based. Also on record: dose 1 mg/kg. The settings on record: Hippocampus.

In the case of `C[C@H](Cn1ncnn1)n1nnc2cc3c(cc2c1=O)OC1CCCN1C3=O` (stereo partly specified), in the assay filed under Rattus norvegicus [1], the CD is 0.042 µM. The Activity in the assay on Rattus norvegicus [2] (route intraperitoneal) came out at 39%.

For the molecule `O=C1c2cc3c(cc2OCN1CC(F)(F)c1cccc(F)c1)C(=O)N1CCCC1O3` (stereo unspecified), the CD in the assay listed under Rattus norvegicus [1] is 1.5 µM.

Consider `C[C@H](Cn1nccn1)n1cnc2cc3c(cc2c1=O)OC1CCCN1C3=O` (stereo partly specified), for which the CD in the assay filed under Rattus norvegicus [1] was found to be 0.45 µM. Moreover, in the assay on Rattus norvegicus [2] (route intraperitoneal), the Activity was found to be 7%.

For the molecule `C#C[C@H](Cc1ccccc1)N1COc2cc3c(cc2C1=O)OC1CCCN1C3=O` (stereo partly specified), in the assay listed under Rattus norvegicus [1], the CD was found to be 0.32 µM.

Regarding `O=C1c2cc3ncn(CCc4cccc(F)c4)c(=O)c3cc2OC2CCCN12` (stereo unspecified), the CD in the assay listed under Rattus norvegicus [1] amounted to 0.0037 µM. Besides, the Activity is on record as 21% in the assay on Rattus norvegicus [3] and 27% in the assay on Rattus norvegicus [4].

With `CC(C)(CN1COc2cc3c(cc2C1=O)OC1CCCN1C3=O)c1cccc(F)c1` (stereo unspecified), the CD in the assay filed under Rattus norvegicus [1] was 17 µM.

As for `C#C[C@H](Cc1cccc(F)c1)N1COc2cc3c(cc2C1=O)OC1CCCN1C3=O` (stereo partly specified), the CD in the assay filed under Rattus norvegicus [1] is 0.004 µM.

In the case of `COC(=O)[C@H](Cc1ccccc1)N1COc2cc3c(cc2C1=O)OC1CCCN1C3=O` (stereo partly specified), the CD in the assay filed under Rattus norvegicus [1] is 0.28 µM.

In the case of `COC(=O)[C@@H](Cc1ccccc1)N1COc2cc3c(cc2C1=O)OC1CCCN1C3=O` (stereo partly specified), the CD in the assay listed under Rattus norvegicus [1] was 48 µM.

For the molecule `O=C1c2cc3nnn(CCc4cccc(F)c4)c(=O)c3cc2OC2CCCN12` (stereo unspecified), in the assay listed under Rattus norvegicus [1], the CD worked out at 0.0031 µM. The Activity with Rattus norvegicus [5] and in the assay on Rattus norvegicus [2] (route intraperitoneal) was 24% in each case.

Regarding `C#C[C@H](Cc1cc(F)cc(F)c1)n1cnc2cc3c(cc2c1=O)OC1CCCN1C3=O` (stereo partly specified), the CD in the assay listed under Rattus norvegicus [1] was determined as 0.002 µM. The Activity in the assay with Rattus norvegicus [6] is reported as 30%.

`O=C1c2cc3nnn(C4CC4)c(=O)c3cc2OC2CCCN12` (stereo unspecified): the CD in the assay filed under Rattus norvegicus [1] is 0.4 µM. In addition, the Activity with Rattus norvegicus [7] is 3%.

As for `O=C1c2cc3ncn(C4CC4)c(=O)c3cc2OC2CCCN12` (stereo unspecified), the CD in the assay listed under Rattus norvegicus [1] is 6.7 µM.

Consider `C#C[C@H](Cc1cccc(F)c1)n1cnc2cc3c(cc2c1=O)OC1CCCN1C3=O` (stereo partly specified), for which, in the assay filed under Rattus norvegicus [1], the CD was 0.006 µM. For the same molecule, in the assay on Rattus norvegicus [8], the Activity stood at 12%.

For the molecule `C#C[C@H](Cc1cc(F)cc(F)c1)n1nnc2cc3c(cc2c1=O)OC1CCCN1C3=O` (stereo partly specified), the CD in the assay filed under Rattus norvegicus [1] was 0.0029 µM. The Activity in the assay on Rattus norvegicus [2] (route intraperitoneal) worked out at 34%.

Take `O=C1c2cc3ncn(CCn4cccn4)c(=O)c3cc2OC2CCCN12` (stereo unspecified): in the assay filed under Rattus norvegicus [1], the CD was determined as 0.17 µM. The result with Rattus norvegicus [2] was inactive.

In the case of `C#C[C@H](Cc1cccc(F)c1)n1nnc2cc3c(cc2c1=O)OC1CCCN1C3=O` (stereo partly specified), in the assay filed under Rattus norvegicus [1], the CD is 0.004 µM. The Activity in the assay with Rattus norvegicus [8] came to 5%.

With `C[C@H](Cn1cnnn1)n1nnc2cc3c(cc2c1=O)OCN(C1CC1)C3=O`, in the assay listed under Rattus norvegicus [1], the CD came out at 0.19 µM. Besides, the Activity with Rattus norvegicus [2] (route intraperitoneal) is 7%.

As to `C[C@H](Cn1ncnn1)n1cnc2cc3c(cc2c1=O)OC1CCCN1C3=O` (stereo partly specified), in the assay listed under Rattus norvegicus [1], the CD was 0.03 µM. Further, the Activity in the assay on Rattus norvegicus [2] (route intraperitoneal) is 22%.

In the case of `O=C1c2cc3c(cc2OCN1CCc1ccccc1)C(=O)N1CCCC1O3` (stereo unspecified), the CD in the assay filed under Rattus norvegicus [1] was 0.25 µM.

Regarding `C[C@H](Cn1cnnn1)n1nnc2cc3c(cc2c1=O)OC1CCCN1C3=O` (stereo partly specified), the CD in the assay filed under Rattus norvegicus [1] was 0.015 µM. Moreover, the Activity in the assay with Rattus norvegicus [2] (route intraperitoneal) was 10%.

For `C#CCn1cnc2cc3c(cc2c1=O)OC1CCCN1C3=O` (stereo unspecified), the CD in the assay filed under Rattus norvegicus [1] was 0.13 µM. Besides, in the assay with Rattus norvegicus [2], the outcome was inactive.

Take `O=C(CN1COc2cc3c(cc2C1=O)OC1CCCN1C3=O)c1ccccc1` (stereo unspecified): in the assay filed under Rattus norvegicus [1], the CD is 100 µM.

For the molecule `O=C1c2cc3c(cc2OCN1CC(O)c1ccccc1)C(=O)N1CCCC1O3` (racemic), the CD in the assay filed under Rattus norvegicus [1] turned out to be 1 µM.

As for `O=C1c2cc3ncn(CCc4ccccc4)c(=O)c3cc2OC2CCCN12` (stereo unspecified), the CD in the assay listed under Rattus norvegicus [1] turned out to be 0.13 µM. Moreover, the Activity with Rattus norvegicus [2] (route intraperitoneal) is recorded as 2%.

As to `C[C@H](Cn1cc(Cl)cn1)n1cnc2cc3c(cc2c1=O)OC1CCCN1C3=O` (stereo partly specified), the CD in the assay filed under Rattus norvegicus [1] came out at 0.0069 µM. The Activity in the assay with Rattus norvegicus [6] stood at 2%.

Regarding `CC[C@H](Cn1cc(Cl)cn1)n1cnc2cc3c(cc2c1=O)OC1CCCN1C3=O` (stereo partly specified), the CD in the assay filed under Rattus norvegicus [1] turned out to be 0.0084 µM. Besides, the Activity with Rattus norvegicus [4] came out at 4%.

For `C[C@H](Cn1ncnn1)n1nnc2cc3c(cc2c1=O)OCN(C1CC1)C3=O`, the CD in the assay listed under Rattus norvegicus [1] was 0.46 µM. For the same molecule, the Activity with Rattus norvegicus [2] (route intraperitoneal) was 33%. Also, the result in the assay with Rattus norvegicus [9] was Active.

In the case of `COC(CN1COc2cc3c(cc2C1=O)OC1CCCN1C3=O)c1ccccc1` (racemic), the CD in the assay listed under Rattus norvegicus [1] amounted to 7.4 µM.

With `CC[C@H](Cc1cccc(F)c1)n1nnc2cc3c(cc2c1=O)OC1CCCN1C3=O` (stereo partly specified), the CD in the assay filed under Rattus norvegicus [1] stood at 0.021 µM. Besides, the Activity with Rattus norvegicus [2] (route intraperitoneal) came to 2%.

For `O=C1c2cc3c(cc2OCN1CCc1cccc(F)c1)C(=O)N1CCCC1O3` (stereo unspecified), the CD in the assay filed under Rattus norvegicus [1] is 0.011 µM. The Activity in the assay with Rattus norvegicus [5] is reported as 28%; in the assay with Rattus norvegicus [2] (route intraperitoneal), 2%.

In the case of `O=C1c2cc3nnn(CCn4cccn4)c(=O)c3cc2OC2CCCN12` (stereo unspecified), in the assay listed under Rattus norvegicus [1], the CD was found to be 0.1 µM. In the assay on Rattus norvegicus [2], the outcome was inactive.

In the case of `O=C1c2cc3ncn(CCn4cc(Cl)cn4)c(=O)c3cc2OC2CCCN12` (stereo unspecified), the CD in the assay filed under Rattus norvegicus [1] turned out to be 0.019 µM. In addition, the Activity in the assay with Rattus norvegicus [4] amounted to 3%.

As to `C#C[C@H](Cc1cccc(F)c1)n1nnc2cc3c(cc2c1=O)OCN(C1CC1)C3=O`, in the assay listed under Rattus norvegicus [1], the CD is 0.2 µM. The Activity in the assay on Rattus norvegicus [2] (route intraperitoneal) stood at 10%.

In the case of `Cn1nnc2cc3c(cc2c1=O)OC1CCCN1C3=O` (stereo unspecified), in the assay filed under Rattus norvegicus [1], the CD was determined as 0.68 µM. In the assay on Rattus norvegicus [2], the result was inactive.

For `C[C@@H](Cn1cc(Cl)cn1)n1cnc2cc3c(cc2c1=O)OC1CCCN1C3=O` (stereo partly specified), the CD result in the assay listed under Rattus norvegicus [1] was “inactive”.

`C#CCn1nnc2cc3c(cc2c1=O)OC1CCCN1C3=O` (stereo unspecified): the CD in the assay listed under Rattus norvegicus [1] worked out at 0.14 µM. In the assay with Rattus norvegicus [2], the result was inactive.
